Measurements reported in US20240360134A1, “PYRAZOLOPYRIMIDINES AND THEIR USES AS PDGFR INHIBITORS” (priority 2021, published 2024).
Read-outs that look alike come from different tables or passages of the source.

Assays:
VEGFR2, unphosphorylated = VEGFR2, unphosphorylated (Homo sapiens (Human), UniProt P35968); assay: VEGFR ADP GLO assay; format: biochemical; settings: 5 nM VEGFR2, 1.2 mM ATP, 1 mg/mL Srctide, 180 min
Summary of the method: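 Unphosphorylated kinase (10 nM 2× solution) pre-incubated 30 min at RT with compounds (11-point, 3-fold, top 10 µM), then reacted 180 min with srctide and ATP (2×: 2 mg/mL, 2.4 mM) in HEPES pH 7.5 buffer. ADP read by luminescence. IC50 from 4-parameter fit, normalized to DMSO and 1 µM TAK-593.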

[1] = target: His6-TEV-PDGFRβ (557-1016) (Homo sapiens (Human), UniProt P09619); assay: PDGFRβ HTRF Assay; format: biochemical
PDGFRβ = PDGFRβ (Rattus norvegicus (Rat), UniProt Q05030); assay: PDGFRβ Cellular Assay (PDGFRb P-Y751 HTRF, PDGF-BB stimulated A10 cells); format: cell-based
Summary of the method: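 Rat A10 cells plated overnight were treated with compound for 3 h, stimulated with rat PDGF-BB (working stock 100 ng/mL in 10% FBS medium) for 10 min, then lysed.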

[2] = target: Tb-labeled inactive PDGFRβ (Homo sapiens (Human), UniProt P09619); assay: biochemical; format: binding
[3] = 800 μM ATP, 0.5 μM TK-substrate biotin peptide, 30 min pre-incubation, 3 hours reaction, read-out: PDGFR HTRF IC50
[4] = A10 cells, 3 hours compound, 15 ng/mL PDGFbb for 10 minutes, read-out: PDGFR Cellular IC50

Tb-labeled inactive PDGFRβ, sequence (P09619 whole entry, looked up): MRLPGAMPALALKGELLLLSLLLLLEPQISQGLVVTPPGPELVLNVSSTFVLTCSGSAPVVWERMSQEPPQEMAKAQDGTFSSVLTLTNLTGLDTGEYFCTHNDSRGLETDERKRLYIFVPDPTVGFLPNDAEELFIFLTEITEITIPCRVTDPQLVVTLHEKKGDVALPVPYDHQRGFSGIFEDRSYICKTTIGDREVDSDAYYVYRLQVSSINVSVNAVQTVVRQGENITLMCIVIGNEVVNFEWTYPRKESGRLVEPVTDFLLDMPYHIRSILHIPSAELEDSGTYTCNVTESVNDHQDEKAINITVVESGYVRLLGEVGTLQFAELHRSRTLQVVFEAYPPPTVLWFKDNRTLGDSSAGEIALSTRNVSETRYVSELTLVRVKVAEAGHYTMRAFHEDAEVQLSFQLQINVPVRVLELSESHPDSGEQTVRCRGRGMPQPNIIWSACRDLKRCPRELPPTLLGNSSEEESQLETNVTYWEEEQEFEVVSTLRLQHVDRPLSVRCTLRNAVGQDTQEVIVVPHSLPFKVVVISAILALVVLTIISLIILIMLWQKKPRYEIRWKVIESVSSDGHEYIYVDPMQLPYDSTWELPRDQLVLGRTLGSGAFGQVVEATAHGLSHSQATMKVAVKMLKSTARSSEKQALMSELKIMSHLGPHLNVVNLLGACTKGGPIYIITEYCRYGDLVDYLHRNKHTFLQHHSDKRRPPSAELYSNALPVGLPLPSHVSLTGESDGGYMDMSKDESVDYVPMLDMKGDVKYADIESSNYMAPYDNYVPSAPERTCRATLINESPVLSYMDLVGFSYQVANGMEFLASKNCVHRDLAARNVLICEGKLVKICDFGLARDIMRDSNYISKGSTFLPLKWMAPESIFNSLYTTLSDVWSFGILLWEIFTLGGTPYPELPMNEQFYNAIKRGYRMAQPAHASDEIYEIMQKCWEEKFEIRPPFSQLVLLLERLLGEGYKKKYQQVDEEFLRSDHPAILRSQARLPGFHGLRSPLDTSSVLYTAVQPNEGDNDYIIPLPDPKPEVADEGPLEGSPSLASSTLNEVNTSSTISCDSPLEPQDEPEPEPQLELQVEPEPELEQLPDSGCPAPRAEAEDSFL
His6-TEV-PDGFRβ (557-1016), sequence (P09619 whole entry, looked up): as above
VEGFR2, unphosphorylated, sequence (P35968 whole entry, looked up): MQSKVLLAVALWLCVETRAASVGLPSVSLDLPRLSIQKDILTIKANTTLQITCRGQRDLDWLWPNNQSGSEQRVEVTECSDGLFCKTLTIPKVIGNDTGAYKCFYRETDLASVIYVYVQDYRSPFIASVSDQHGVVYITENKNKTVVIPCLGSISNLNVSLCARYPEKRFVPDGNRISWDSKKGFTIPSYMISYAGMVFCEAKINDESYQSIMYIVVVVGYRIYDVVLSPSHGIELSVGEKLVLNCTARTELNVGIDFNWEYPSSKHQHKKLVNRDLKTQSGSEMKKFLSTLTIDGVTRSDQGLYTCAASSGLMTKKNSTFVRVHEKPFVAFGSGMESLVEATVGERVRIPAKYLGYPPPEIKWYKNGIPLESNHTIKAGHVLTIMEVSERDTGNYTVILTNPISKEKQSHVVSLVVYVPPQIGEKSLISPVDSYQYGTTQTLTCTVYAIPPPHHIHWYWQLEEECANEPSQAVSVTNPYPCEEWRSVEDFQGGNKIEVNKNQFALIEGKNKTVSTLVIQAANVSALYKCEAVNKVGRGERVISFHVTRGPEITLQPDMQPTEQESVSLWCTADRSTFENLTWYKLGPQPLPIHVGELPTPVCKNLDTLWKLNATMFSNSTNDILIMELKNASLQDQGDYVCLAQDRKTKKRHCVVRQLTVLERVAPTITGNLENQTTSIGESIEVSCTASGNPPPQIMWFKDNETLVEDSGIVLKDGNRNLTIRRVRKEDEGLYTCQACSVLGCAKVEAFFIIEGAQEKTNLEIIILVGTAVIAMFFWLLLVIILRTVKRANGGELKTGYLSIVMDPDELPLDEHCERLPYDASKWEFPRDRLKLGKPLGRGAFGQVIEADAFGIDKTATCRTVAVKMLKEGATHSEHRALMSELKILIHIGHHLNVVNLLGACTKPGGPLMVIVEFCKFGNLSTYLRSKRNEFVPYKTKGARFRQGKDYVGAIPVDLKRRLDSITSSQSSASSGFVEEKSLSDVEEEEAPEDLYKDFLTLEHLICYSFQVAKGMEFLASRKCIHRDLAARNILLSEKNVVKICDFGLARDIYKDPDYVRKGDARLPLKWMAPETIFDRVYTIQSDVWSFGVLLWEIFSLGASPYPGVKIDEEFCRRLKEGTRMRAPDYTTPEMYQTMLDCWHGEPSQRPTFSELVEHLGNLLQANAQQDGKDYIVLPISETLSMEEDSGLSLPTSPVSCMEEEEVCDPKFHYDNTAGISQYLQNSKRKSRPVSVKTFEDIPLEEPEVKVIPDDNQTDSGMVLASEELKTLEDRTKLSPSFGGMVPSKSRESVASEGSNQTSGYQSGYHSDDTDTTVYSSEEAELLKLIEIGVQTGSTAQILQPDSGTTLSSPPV
PDGFRβ, sequence (Q05030 whole entry, looked up): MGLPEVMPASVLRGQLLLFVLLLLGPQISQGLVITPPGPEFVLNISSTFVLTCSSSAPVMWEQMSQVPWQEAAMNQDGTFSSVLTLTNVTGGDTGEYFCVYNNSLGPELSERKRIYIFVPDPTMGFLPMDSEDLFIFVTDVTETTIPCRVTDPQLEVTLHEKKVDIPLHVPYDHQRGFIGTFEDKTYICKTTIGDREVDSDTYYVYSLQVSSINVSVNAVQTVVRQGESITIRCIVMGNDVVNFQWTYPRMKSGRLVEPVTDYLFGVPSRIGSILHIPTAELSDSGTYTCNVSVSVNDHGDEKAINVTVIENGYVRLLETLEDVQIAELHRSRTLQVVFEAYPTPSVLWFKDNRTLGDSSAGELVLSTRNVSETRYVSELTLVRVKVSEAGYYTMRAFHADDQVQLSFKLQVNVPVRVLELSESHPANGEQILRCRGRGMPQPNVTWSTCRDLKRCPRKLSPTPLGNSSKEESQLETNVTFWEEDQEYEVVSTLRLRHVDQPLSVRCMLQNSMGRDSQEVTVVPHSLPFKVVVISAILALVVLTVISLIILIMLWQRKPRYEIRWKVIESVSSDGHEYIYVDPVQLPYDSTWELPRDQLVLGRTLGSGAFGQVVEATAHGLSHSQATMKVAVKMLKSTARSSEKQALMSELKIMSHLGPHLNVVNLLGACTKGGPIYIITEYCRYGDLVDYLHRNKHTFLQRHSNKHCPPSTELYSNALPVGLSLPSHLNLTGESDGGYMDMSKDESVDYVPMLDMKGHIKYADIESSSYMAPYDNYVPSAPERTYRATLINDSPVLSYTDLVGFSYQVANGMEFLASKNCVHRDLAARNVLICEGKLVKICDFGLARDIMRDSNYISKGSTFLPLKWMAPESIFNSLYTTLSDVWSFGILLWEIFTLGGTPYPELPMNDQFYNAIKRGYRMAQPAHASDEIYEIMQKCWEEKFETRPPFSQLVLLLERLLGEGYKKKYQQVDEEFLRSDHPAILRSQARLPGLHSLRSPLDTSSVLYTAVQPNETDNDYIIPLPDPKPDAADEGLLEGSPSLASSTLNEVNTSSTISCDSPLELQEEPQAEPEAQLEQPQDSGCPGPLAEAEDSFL

Row | SMILES | IC50 (VEGFR2, unphosphorylated) | IC50 [1, 3] | IC50 (PDGFRβ; [4]) | IC50 ([2]; read-out: PDGFR Lantha IC50) | IC50 [1] | IC50 (PDGFRβ) | IC50 [2]
1 | COCCn1cc(Nc2ncc3c(Nc4cc(NC(=O)CN5CC(C)(C)C5)cnc4C)nn(C)c3n2)cn1 [Example 126, 2-(3,3-dimethylazetidin-1-yl)-N-(5-((6-((1-(2-methoxyethyl)-1H-pyrazol-4-yl)amino)-1-methyl-1H-pyrazolo[3,4-d]pyrimidin-3-yl)amino)-6-methylpyridin-3-yl)acetamide] | 6880 nM | 0.33 nM | 6 nM | 2.1 nM | – | – | –
2 | Cc1ncc(C(=O)NCCN2CCCC2(C)C)cc1Nc1nn(C)c2nc(Nc3ccnc(N4CCN(CCO)CC4)c3)ncc12 [Example 103, N-(2-(2,2-dimethylpyrrolidin-1-yl)ethyl)-5-((6-((2-(4-(2-hydroxyethyl)piperazin-1-yl)pyridin-4-yl)amino)-1-methyl-1H-pyrazolo[3,4-d]pyrimidin-3-yl)amino)-6-methylnicotinamide] | > 7500 nM | 0.55 nM | 443 nM | 4.8 nM | – | – | –
3 | Cc1ncc(C(=O)NCCN2CC(C)(C)C2)cc1Nc1nn(C)c2nc(Nc3cncnc3)ncc12 [Example 55, N-(2-(3,3-dimethylazetidin-1-yl)ethyl)-6-methyl-5-((1-methyl-6-(pyrimidin-5-ylamino)-1H-pyrazolo[3,4-d]pyrimidin-3-yl)amino)nicotinamide] | > 7500 nM | 0.55 nM | 275 nM | 9.5 nM | – | – | –
4 | C[C@H]1CCCN1CCNC(=O)c1ccc(F)c(Nc2nn(C)c3nc(Nc4cnn(C)c4)ncc23)c1 [Example 119, (S)-4-fluoro-3-((1-methyl-6-((1-methyl-1H-pyrazol-4-yl)amino)-1H-pyrazolo[3,4-d]pyrimidin-3-yl)amino)-N-(2-(2-methylpyrrolidin-1-yl)ethyl)benzamide] | 6600 nM | 0.13 nM | 5.8 nM | 1.4 nM | – | – | –
5 | Cc1ncc(C(=O)NCCN2C[C@H](C)O[C@@H](C)C2)cc1Nc1nn(C)c2nc(Nc3ccnc(N4CCC(CCO)CC4)c3)ncc12 [Example 112, N-(2-((2S,6S)-2,6-dimethylmorpholino)ethyl)-5-((6-((2-(4-(2-hydroxyethyl)piperidin-1-yl)pyridin-4-yl)amino)-1-methyl-1H-pyrazolo[3,4-d]pyrimidin-3-yl)amino)-6-methylnicotinamide] | > 7500 nM | 0.57 nM | 84.4 nM | 4.5 nM | – | – | –
6 | CC[C@@H]1CN(CCNC(=O)c2cnc(C)c(Nc3nn(C)c4nc(Nc5ccnc(N6CCC(CCO)CC6)c5)ncc34)c2)CCO1 [Example 113, (R)—N-(2-(2-ethylmorpholino)ethyl)-5-((6-((2-(4-(2-hydroxyethyl)piperidin-1-yl)pyridin-4-yl)amino)-1-methyl-1H-pyrazolo[3,4-d]pyrimidin-3-yl)amino)-6-methylnicotinamide] | > 7500 nM | 0.94 nM | 116 nM | 6.8 nM | – | – | –
7 | COCCn1cc(Nc2ncc3c(Nc4cc(NC(=O)CN5CCC6(CC6)C5)cnc4C)nn(C)c3n2)cn1 [Example 124, N-(5-((6-((1-(2-methoxyethyl)-1H-pyrazol-4-yl)amino)-1-methyl-1H-pyrazolo[3,4-d]pyrimidin-3-yl)amino)-6-methylpyridin-3-yl)-2-(5-azaspiro[2.4]heptan-5-yl)acetamide] | 4930 nM | 0.35 nM | 4.3 nM | 1.6 nM | – | – | –
8 | Cc1cc(C(=O)NCCN2CCC[C@@H]2C)sc1Nc1nn(C)c2nc(Nc3cnn(C)c3)ncc12 [Example 60, (S)-4-methyl-5-((1-methyl-6-((1-methyl-1H-pyrazol-4-yl)amino)-1H-pyrazolo[3,4-d]pyrimidin-3-yl)amino)-N-(2-(2-methylpyrrolidin-1-yl)ethyl)thiophene-2-carboxamide] | > 7500 nM | 0.65 nM | 67.2 nM | 9.7 nM | – | – | –
9 | Cc1ncc(C(=O)NCCN2CCC3(CC3)C2)cc1Nc1nn(C)c2nc(Nc3cncnc3)ncc12 [Example 58, N-(2-(5-azaspiro[2.4]heptan-5-yl)ethyl)-6-methyl-5-((1-methyl-6-(pyrimidin-5-ylamino)-1H-pyrazolo[3,4-d]pyrimidin-3-yl)amino)nicotinamide] | > 7500 nM | 0.36 nM | 101 nM | 4.8 nM | – | – | –
10 | Cc1ncc(C(=O)NCCN2CCC[C@@H]2C)cc1Nc1nn(C)c2nc(Nc3cnn(C)c3C)ncc12 [Example 155, (S)-5-((6-((1,5-dimethyl-1H-pyrazol-4-yl)amino)-1-methyl-1H-pyrazolo[3,4-d]pyrimidin-3-yl)amino)-6-methyl-N-(2-(2-methylpyrrolidin-1-yl)ethyl)nicotinamide] | > 7500 nM | 1.98 nM | 169 nM | 15.5 nM | – | – | –
11 | Cc1ncc(C(=O)NCCN2CCC3(CCC3)CC2)cc1Nc1nn(C)c2nc(Nc3cncnc3)ncc12 [Example 7, N-(2-(7-azaspiro[3.5]nonan-7-yl)ethyl)-6-methyl-5-((1-methyl-6-(pyrimidin-5-ylamino)-1H-pyrazolo[3,4-d]pyrimidin-3-yl)amino)nicotinamide] | > 7500 nM | 0.48 nM | 32.7 nM | 6.7 nM | – | – | –
12 | Cc1ncc(C(=O)NCCN2[C@H](C)CCC[C@@H]2C)cc1Nc1nn(C)c2cc(Nc3cnn(C)c3)ncc12 [Example 68, N-(2-((2S,6R)-2,6-dimethylpiperidin-1-yl)ethyl)-6-methyl-5-((1-methyl-6-((1-methyl-1H-pyrazol-4-yl)amino)-1H-pyrazolo[4,3-c]pyridin-3-yl)amino)nicotinamide] | > 7500 nM | – | – | – | 1.98 nM | 112 nM | 33.9 nM
13 | CC[C@@H]1CN(CCNC(=O)c2cnc(C)c(Nc3nn(C)c4nc(Nc5cnn(C)c5)ncc34)c2)CCO1 [Example 88, (R)—N-(2-(2-ethylmorpholino)ethyl)-6-methyl-5-((1-methyl-6-((1-methyl-1H-pyrazol-4-yl)amino)-1H-pyrazolo[3,4-d]pyrimidin-3-yl)amino)nicotinamide] | > 7500 nM | 0.35 nM | 22.3 nM | 3 nM | – | – | –
14 | Cc1nn(C)cc1Nc1ncc2c(Nc3cc(C(=O)NCCN4CCC(C)(C)C4)cnc3C)nn(C)c2n1 [Example 159, 5-((6-((1,3-dimethyl-1H-pyrazol-4-yl)amino)-1-methyl-1H-pyrazolo[3,4-d]pyrimidin-3-yl)amino)-N-(2-(3,3-dimethylpyrrolidin-1-yl)ethyl)-6-methylnicotinamide] | > 7500 nM | 1.5 nM | 60.7 nM | 13.3 nM | – | – | –
15 | Cc1ccc(C(=O)NCCN2CCC[C@@H]2C)cc1Nc1nn(C)c2nc(Nc3cnn(C)c3)ncc12 [Example 65, (S)-4-methyl-3-((1-methyl-6-((1-methyl-1H-pyrazol-4-yl)amino)-1H-pyrazolo[3,4-d]pyrimidin-3-yl)amino)-N-(2-(2-methylpyrrolidin-1-yl)ethyl)benzamide] | 2400 nM | 0.22 nM | 10 nM | 2.1 nM | – | – | –
16 | Cc1ncc(NC(=O)C2(C(=O)N3CCNCC3)CC2)cc1Nc1nn(C)c2nc(Nc3cnn(C)c3)ncc12 [Example 117, N-(6-methyl-5-((1-methyl-6-((1-methyl-1H-pyrazol-4-yl)amino)-1H-pyrazolo[3,4-d]pyrimidin-3-yl)amino)pyridin-3-yl)-1-(piperazine-1-carbonyl) cyclopropanecarboxamide] | > 7500 nM | 4.28 nM | > 2000 nM | 147 nM | – | – | –
